Assay results taken from paper PMC9489211, “Regulation of pulmonary surfactant by the adhesion GPCR GPR116/ADGRF5 requires a tethered agonist-mediated activation mechanism” (eLife, 2022).
Where a SMILES comes first, the peptide text is derived from it. Where no end group is shown, it is not given here. [ ]: non-standard residue; d: D form. Nle = CCCC[C@H](N)C(=O)O

Assays:
[1] = target: T1, hCTFbax G1011K (Homo sapiens, UniProt Q8IZF2, G1009K); assay: Calcium transient assay, hCTFbax G1011K; format: cell-based; conditions: calcium transients, Figure 7C
T1 construct: tethered peptide (993 - 1008); expressed in transfected cells
T1 sequence (Q8IZF2 997-1346 G1009K): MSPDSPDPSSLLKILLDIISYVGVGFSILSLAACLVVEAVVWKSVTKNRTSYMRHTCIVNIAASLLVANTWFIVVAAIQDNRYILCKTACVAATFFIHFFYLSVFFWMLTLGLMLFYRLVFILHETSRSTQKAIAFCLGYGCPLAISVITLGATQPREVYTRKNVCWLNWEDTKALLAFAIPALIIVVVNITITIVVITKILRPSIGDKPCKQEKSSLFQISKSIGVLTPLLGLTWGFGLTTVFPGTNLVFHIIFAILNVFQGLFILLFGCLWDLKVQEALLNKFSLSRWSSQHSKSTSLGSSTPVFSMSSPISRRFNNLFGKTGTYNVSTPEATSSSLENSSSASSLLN
Experimental: The hCTFbax construct was generated independently of the mCTFbax, using a strategy (Nt deletion) based on emerging knowledge and appropriate for the planned studies, although no difference in functionality is expected between the two approaches. The hCTFbax mBS chimera was derived from this construct by gene synthesis. Other mutants of the human GPR116 CTF or full-length constructs were generated by site-directed mutagenesis using PCR-based techniques.
HEK293 cells were seeded in 384-well plates (Greiner, #781946) at 30,000 cells/well. […] Plates were then transferred to a FDSS7000 fluorescence plate reader (HAMAMATSU, Japan) and Ca^2+ responses were measured in real time using a CCD camera with excitation 480 nm/emission 540 nm. Prior to stimulation, baseline measurements were recorded over 5 s (Fmin). […] Fluorescence was read over 1–1.5 min. Maximum fluorescence (Fmax) was determined and normalized to baseline. […]
(§1) Concentration response curves were analyzed using GraphPad Prism 9.2.0. Potency was determined using a nonlinear regression model with variable slope, and statistical significance was determined using a one-way ANOVA followed by Dunnett’s multiple comparison test or a TTEST for comparison of two data sets (*p<0.05, **p<0.01, ***p<0.001, ****p<0.0001, ns, not significant).

[2] = target: T2, full-length hGPR116 (HEK293 clone A6) (Homo sapiens, UniProt Q8IZF2); assay: Calcium transient assay, full-length hGPR116 stably expressed in HEK293 (clone A6); format: cell-based; conditions: calcium transients, hFL clone A6, Figure 3-figure supplement 2 / Figure 7A
T2 construct: expressed in transfected cells
T2 sequence (Q8IZF2 22-1346): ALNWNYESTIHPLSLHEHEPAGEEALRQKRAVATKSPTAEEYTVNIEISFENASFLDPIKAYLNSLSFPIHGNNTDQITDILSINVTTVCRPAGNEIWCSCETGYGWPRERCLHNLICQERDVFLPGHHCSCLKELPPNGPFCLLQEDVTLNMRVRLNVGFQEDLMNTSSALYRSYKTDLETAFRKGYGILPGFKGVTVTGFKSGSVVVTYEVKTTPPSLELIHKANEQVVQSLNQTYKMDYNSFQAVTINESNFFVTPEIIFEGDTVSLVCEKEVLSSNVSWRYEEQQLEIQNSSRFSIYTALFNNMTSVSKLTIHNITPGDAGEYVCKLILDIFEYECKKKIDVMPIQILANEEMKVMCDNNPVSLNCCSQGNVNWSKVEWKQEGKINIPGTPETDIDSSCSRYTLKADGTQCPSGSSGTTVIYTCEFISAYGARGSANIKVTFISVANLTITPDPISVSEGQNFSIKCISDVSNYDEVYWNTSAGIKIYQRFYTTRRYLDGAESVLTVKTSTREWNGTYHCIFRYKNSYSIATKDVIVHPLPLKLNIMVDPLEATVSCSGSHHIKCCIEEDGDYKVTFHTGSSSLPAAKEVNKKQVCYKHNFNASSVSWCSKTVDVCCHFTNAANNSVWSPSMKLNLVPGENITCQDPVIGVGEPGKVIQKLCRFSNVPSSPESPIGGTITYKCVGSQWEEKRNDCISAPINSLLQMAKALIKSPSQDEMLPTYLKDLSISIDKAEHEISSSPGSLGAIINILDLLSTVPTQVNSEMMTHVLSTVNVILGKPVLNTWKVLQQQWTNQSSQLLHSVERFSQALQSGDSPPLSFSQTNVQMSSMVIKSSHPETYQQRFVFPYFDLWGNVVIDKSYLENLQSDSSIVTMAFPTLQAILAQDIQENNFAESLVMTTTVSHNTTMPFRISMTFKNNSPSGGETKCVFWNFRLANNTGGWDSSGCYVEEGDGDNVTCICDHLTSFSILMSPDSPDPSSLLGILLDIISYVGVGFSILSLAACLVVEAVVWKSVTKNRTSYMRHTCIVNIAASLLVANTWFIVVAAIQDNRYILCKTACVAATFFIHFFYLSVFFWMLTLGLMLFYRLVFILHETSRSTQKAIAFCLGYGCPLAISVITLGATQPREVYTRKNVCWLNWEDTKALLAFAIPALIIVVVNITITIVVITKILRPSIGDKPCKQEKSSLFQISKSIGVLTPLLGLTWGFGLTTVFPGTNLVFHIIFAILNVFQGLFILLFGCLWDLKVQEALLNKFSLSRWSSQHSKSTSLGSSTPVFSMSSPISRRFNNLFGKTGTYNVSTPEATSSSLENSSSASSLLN
Experimental: (§2) For some constructs, stable populations were generated by treating the cells with G418. After complete selection of resistant cells, these were used in assays. Stable HEK293 clones for full-length hGPR116 (clone A6) and mGPR116 (clone 3C) were described earlier ([Brown et al., 2017]).
(§3) HEK293 cells were seeded in 384-well plates (Greiner, #781946) at 30,000 cells/well. Medium was removed the following day and cells were loaded for 2 hr at 37°C, 5% CO2 with 20 µl Calcium 6 loading buffer (Molecular Devices, Cat# R8191): 1× HBSS (Gibco, Cat# 14065.049) containing 20 mM HEPES (Gibco, Cat#15630) and 2.5 mM probenecid (Sigma, Cat# P8761). Plates were then transferred to a FDSS7000 fluorescence plate reader (HAMAMATSU, Japan) and Ca^2+ responses were measured in real time using a CCD camera with excitation 480 nm/emission 540 nm. Prior to stimulation, baseline measurements were recorded over 5 s (Fmin). For stimulation, 20 µl of test compounds prepared 2× in HBSS containing 20 mM HEPES were dispensed. Fluorescence was read over 1–1.5 min. Maximum fluorescence (Fmax) was determined and normalized to baseline. Data are reported as ∆F/F = (Fmax – Fmin)/Fmin. Adequate response of the endogenous M3R was verified for each transfection, using carbachol at 100 µM and following the same procedure as for the peptide activation.
as §1

[3] = system: mouse GPR116 CTF (mCTF) single alanine mutants; assay: IP1 accumulation, mCTF single alanine mutants of the tethered agonist stimulated with exogenous GAP; format: cell-based; conditions: transiently transfected HEK293, Figure 3E
Experimental: HEK293 cells were seeded in 12-well plates at a density of 1.5 × 10^5 cells per well and transiently transfected with plasmids expressing wild-type, wild-type mGPR116-FLAG, CTF-FLAG, or alanine mutants of CTF-FLAG. Then, 24 hr post transfection, media were removed and replaced with serum-free Modified Eagles Medium (MEM; Mediatech) containing 1 µCi/ml of 3H-myo-inositol (PerkinElmer Life Sciences). Also, 48 hr […], media were removed and replaced with serum-free media supplemented with 20 mM LiCl for 3 hr. For samples to be stimulated with GAPs, the peptides were added at the appropriate concentration when the media were replaced with that supplemented with LiCl. […] Columns were washed twice with distilled H2O, total inositol phosphates (IP) were eluted with 4.0 ml of 0.1 M formic acid and 1 M ammonium formate, and eluates containing accumulated inositol phosphates were counted in a liquid scintillation counter. Then, 50 μl of neutralized supernatant was counted in a liquid scintillation counter to measure total incorporated 3H-myo-inositol. Data are expressed as accumulated inositol phosphate over total incorporated 3H-myo-inositol. […]
IP1 accumulation was measured using the manufacturer’s instructions (IP-One, Cisbio 62IPAPEC). […] Plates were read at 665 and 620 nm on an EnVision Xcite Multilabel reader (PerkinElmer, # 2104-0020). […]

[4] = system: mCTFbax Y1158A, R1160A, W1165A, L1166A, T1240A; assay: Calcium transient assay, alanine scan of ECLs in mCTFbax; format: cell-based, mouse; conditions: transiently transfected HEK293, Figure 4B
Experimental: Human and mouse GPR116 full-length constructs (hFL and mFL, respectively) have been described earlier, as well as the mouse CTF constructs (mCTF) with N-terminal mCherry or FLAG ([Brown et al., 2017]). […] Mutants of these constructs have been generated by site-directed mutagenesis using PCR-based techniques.
as §3

[5] = target: T3, full-length mGPR116 (HEK293 clone 3C) (Mus musculus, UniProt G5E8Q8); assay: Calcium transient assay, full-length mGPR116 stably expressed in HEK293 (clone 3C); format: cell-based; conditions: calcium transient assay, HEK293 clone 3C, Fig 3F
T3 construct: expressed in transfected cells
T3 sequence (G5E8Q8 22-1348): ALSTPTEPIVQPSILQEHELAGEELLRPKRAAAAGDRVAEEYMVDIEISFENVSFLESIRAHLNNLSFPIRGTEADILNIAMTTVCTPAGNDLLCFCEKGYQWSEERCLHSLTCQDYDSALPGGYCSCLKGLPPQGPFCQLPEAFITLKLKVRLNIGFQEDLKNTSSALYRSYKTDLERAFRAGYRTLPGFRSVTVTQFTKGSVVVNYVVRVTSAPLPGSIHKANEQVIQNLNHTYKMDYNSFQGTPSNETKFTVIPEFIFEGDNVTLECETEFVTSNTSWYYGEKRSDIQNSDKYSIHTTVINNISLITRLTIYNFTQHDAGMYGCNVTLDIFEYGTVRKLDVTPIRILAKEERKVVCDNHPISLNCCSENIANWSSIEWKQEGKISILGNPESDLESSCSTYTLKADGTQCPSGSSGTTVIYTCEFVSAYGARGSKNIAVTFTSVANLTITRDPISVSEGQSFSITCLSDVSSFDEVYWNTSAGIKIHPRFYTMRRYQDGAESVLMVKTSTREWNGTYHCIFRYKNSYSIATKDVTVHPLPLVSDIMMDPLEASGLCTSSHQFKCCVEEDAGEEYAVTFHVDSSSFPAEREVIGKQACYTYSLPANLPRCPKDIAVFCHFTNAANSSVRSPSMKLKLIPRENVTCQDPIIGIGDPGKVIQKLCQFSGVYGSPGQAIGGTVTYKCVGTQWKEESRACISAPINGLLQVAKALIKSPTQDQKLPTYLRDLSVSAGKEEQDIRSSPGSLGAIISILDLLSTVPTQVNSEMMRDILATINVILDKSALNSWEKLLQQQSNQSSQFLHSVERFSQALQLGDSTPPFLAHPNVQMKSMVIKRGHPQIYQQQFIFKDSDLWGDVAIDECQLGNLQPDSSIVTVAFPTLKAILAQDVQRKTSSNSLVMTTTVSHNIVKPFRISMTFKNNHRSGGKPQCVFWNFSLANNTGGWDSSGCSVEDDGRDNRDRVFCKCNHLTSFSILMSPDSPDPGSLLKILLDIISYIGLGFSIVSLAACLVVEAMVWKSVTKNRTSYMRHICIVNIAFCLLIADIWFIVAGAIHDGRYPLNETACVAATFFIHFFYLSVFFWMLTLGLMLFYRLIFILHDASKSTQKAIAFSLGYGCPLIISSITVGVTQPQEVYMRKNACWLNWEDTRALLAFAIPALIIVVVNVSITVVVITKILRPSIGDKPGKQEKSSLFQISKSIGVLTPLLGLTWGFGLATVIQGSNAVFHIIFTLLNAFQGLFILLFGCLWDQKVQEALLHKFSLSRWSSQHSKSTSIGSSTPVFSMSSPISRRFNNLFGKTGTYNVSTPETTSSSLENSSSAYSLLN
Experimental: as §2, §3, §1

Question: Which results are given for CCCC[C@H](NC(=O)[C@H](CC(C)C)NC(=O)[C@@H](NC(=O)[C@H](CO)NC(=O)[C@H](Cc1ccccc1)NC(=O)[C@H](CO)NC(=O)[C@@H]1CCCN1)[C@@H](C)CC)C(=O)N[C@@H](CO)C(=O)N1CCC[C@H]1C(=O)N[C@@H](CC(=O)O)C(=O)O [GAP10-Pro1] (H-PSFSIL[Nle]SPD-OH; N-terminus and C-terminus assumed)?
Answer: response of hCTFbax G1011K (in words) [1]: did not robustly respond; activation of the human full-length receptor (in words) [2]: little to no effect

Question: For TSFSILMSPDSPDP [GAP14], which “activation of mCTF single alanine mutants, IP1 accumulation (in words)” value [3] is on record?
Answer: The value was “strongly activated the mutant receptors”.

Question: And the “activation of mCTFbax ECL alanine mutants (in words)” value [4]?
Answer: The value was “unresponsive to GAP14-mediated activation”.

Question: And the “EC50 (uM) n=1” value ([5]; independent experiment n=1 (mean of quadruplicate))?
Answer: The value was 29.9 µM.

Question: What about the “EC50 (uM) n=2” value ([5]; independent experiment n=2 (mean of quadruplicate)) of the same molecule?
Answer: The value was 26.3 µM.

Question: What about the “EC50 (uM) n=3” value ([5]; independent experiment n=3 (mean of quadruplicate)) of the same molecule?
Answer: Its value is 46.4 µM.
